From US9238626B2 (priority 2012, dated 2016)
Where a name gives a salt, the structure may show the parent alone.

Legend:
APP-PS1 mice [1] = assay: Electrophysiology (LTP) in hippocampal slices from treated APP-PS1 mice; assay type: in vivo, mouse; details: for LTP magnitude at 60 min: compared with untreated brain slices; for LTP generation (in words): slices from treated APP-PS1 mice
[2] = test system: hippocampal slices treated with Aβ oligomers; assay: Synaptic protein levels of hippocampal slices in the presence of Aβ oligomers (western blot); assay type: cell-based, C57bl6 mice; details: co-treatment with Aβ oligomers, 1 h
Description: The hippocampus of treated or control transgenic mice were dissected on ice and immediately frozen at −150° C. or processed. Briefly, hippocampal tissue were homogenized in RIPA buffer (50 mM Tris-Cl, pH 7.5, 150 mM NaCl, 1% NP-40, 0.5% sodium deoxycholate, and 1% SDS) supplemented with a protease inhibitor cocktail (Sigma-Aldrich P8340) and phosphatase inhibitors (50 mM NaF, 1 mM Na3VO4 and 30 μM Na4P207) using a Potter homogenizator and then passed sequentially through different caliber syringes. Protein samples were centrifuged at 14000 rpm at 4° C. twice for 10 min. Protein concentration was determined using the BCA Protein Assay Kit (Pierce Biotechnology, Rockford, Ill.). 20 and 40 micrograms of hippocampal samples were resolved by 10% SDS-PAGE, transferred to a PVDF membrane. The reactions were followed by incubation with primary antibodies, secondary antibodies anti-mouse, anti-goat or anti-rabbit IgG peroxidase conjugated (Pierce) and developed using an ECL kit (Western Lightning Plus ECL, Perkin Elmer).
In slices co-treated with (−)-(Ib) (FIG. 4A), the neuroprotective effect of the compound was observed.

APP-PS1 mice [3] = assay: Total load of brain amyloid deposits in APP-PS1 mice (Aβ 6E10 immunodetection); assay type: in vivo, mouse
[4] = 7-month-old APP-PS1 mice, FIG. 7A
[5] = 11-month-old APP-PS1 mice, FIG. 7B

SMILES	LTP magnitude at 60 min (APP-PS1 mice [1])	LTP generation (in words) (APP-PS1 mice [1])	GluA2 protein level [2]	PSD95 protein level [2]	SYN protein level [2]	VGlut1 protein level [2]	synaptophysin (SYP) protein level [2]	Aβ load, hippocampus (APP-PS1 mice [3]; [4])	Aβ-positive aggregate area, brain cortex (APP-PS1 mice [3]; [4])	total Aβ load, cortex (APP-PS1 mice [3]; [5])	total Aβ load, hippocampus (APP-PS1 mice [3]; [5])
CC1=C[C@H]2Cc3nc4cc(Cl)ccc4c(NCCCCCCCCCNC(=O)c4cc(O)c5c(c4)C(=O)c4cccc(O)c4C5=O)c3[C@@H](C1)C2 [(+)-(Ib)•HCl, (+)-(7R,11R)—N-{9-[(3-chloro-6,7,10,11-tetrahydro-9-methyl-7,11-methanocycloocta[b]quinolin-12-yl)amino]nonyl}-9,10-dihydro-4,5-dihydroxy-9,10-dioxoanthracene-2-carboxamide]	150%	able to generate LTP	increased levels of total protein with every concentration used	increased levels of total protein with every concentration used	increased levels of total protein with every concentration used	no changes	no changes	diminished the load levels of Aβ oligomers	significant reduction	reduction in total Aβ load	reduction in total load of Aβ
CC1=C[C@@H]2Cc3nc4cc(Cl)ccc4c(NCCCCCCCCCNC(=O)c4cc(O)c5c(c4)C(=O)c4cccc(O)c4C5=O)c3[C@H](C1)C2 [(−)-(Ib)•HCl, (−)-(7S,11S)—N-{9-[(3-chloro-6,7,10,11-tetrahydro-9-methyl-7,11-methanocycloocta[b]quinolin-12-yl)amino]nonyl}-9,10-dihydro-4,5-dihydroxy-9,10-dioxoanthracene-2-carboxamide]	150%	able to generate LTP	evident effect at 10 and 100 μM	evident effect at 10 and 100 μM	–	increment for every concentration	no effects were observed	–	significant reduction	reduction in total Aβ load	–
